Where a name gives a salt, the structure may show the parent alone.
Row | Structure (SMILES) | melting point [°C]
1 | O=C(NCc1ccccc1)c1ccnc(NC(=O)c2cccc3ccccc23)c1 [Example 6.7, 2-(1-naphthamido)-N-benzylisonicotinamide] | 65 to 67
2 | Cc1c[nH]c(-c2ccnc(NC(=O)c3ccccc3)c2)n1 [Example 10, N-(4-(4-methyl-1H-imidazol-2-yl)pyridin-2-yl)benzamide] | 133 to 135
3 | O=C(NCc1ccccc1)c1ccnc(NC(=O)c2cc(F)ccc2Cl)c1 [Example 6.9, N-benzyl-2-(2-chloro-5-fluorobenzamido)isonicotinamide] | 180 to 181
4 | NC(=O)c1ccnc(N2CCN(Cc3ccc(F)cc3)C2=O)c1 [Example 22, 2-(3-(4-fluorobenzyl)-2-oxoimidazolidin-1-yl)isonicotinamide] | 206 to 208
5 | COc1ccc(C(=O)Nc2cc(C(=O)NCc3ccccc3)ccn2)cc1 [Example 6.5, N-benzyl-2-(4-methoxybenzamido)isonicotinamide] | 165 to 166
6 | O=C(CCc1ccccc1)Nc1cc(C(=O)NCc2ccccc2)ccn1 [Example 5.3, N-benzyl-2-(3-phenylpropanamido)isonicotinamide] | 177 to 179
7 | O=C(NCc1ccccc1)c1ccnc(-n2ccc(OCc3ccccc3)cc2=O)c1 [Example 19, 4-benzyloxy-2-oxo-2H-[1,2′]bipyridinyl-4′-carboxylic acid benzylamide] | 158 to 161
8 | N#Cc1ccc(C(=O)Nc2cc(C(=O)NCc3ccccc3)ccn2)cc1 [Example 6.10, N-benzyl-2-(4-cyanobenzamido)isonicotinamide] | 180 to 181
9 | O=C(Nc1cc(-c2nc(Cc3ccccc3)no2)ccn1)c1ccccc1 [Example 12, N-[4-(3-benzyl-[1,2,4]oxadiazol-5-yl)-pyridin-2-yl]benzamide] | 150 to 151
10 | O=C(NCc1ccccc1)c1ccnc(-n2ccc(O)cc2=O)c1 [Example 20, 4-hydroxy-2-oxo-2H-[1,2′]bipyridinyl-4′-carboxylic acid benzylamide] | 102 to 105
11 | O=C(NCc1ccccc1)c1ccnc(NC(=O)c2ccccc2F)c1 [Example 6, N-benzyl-2-(2-fluorobenzamido)isonicotinamide] | 175 to 176
12 | Cc1ccc(CNC(=O)c2ccnc(NC(=O)c3ccccc3)c2)cc1 [Example 1.2, 2-benzamido-N-(4-methylbenzyl)isonicotinamide] | 135 to 138
13 | O=C(NCc1ccccc1)c1ccnc(NC(=O)c2cccc(F)c2)c1 [Example 6.1, N-benzyl-2-(3-fluorobenzamido)isonicotinamide] | 140 to 143
14 | O=C(NCc1ccc(C(F)(F)F)cc1)c1ccnc(NC(=O)c2ccccc2)c1 [Example 1, 2-benzamido-N-(4-(trifluoromethyl)benzyl)isonicotinamide] | 165 to 168
15 | O=C(NCc1ccccc1)c1ccnc(NC(=O)c2ccc(C(F)(F)F)cc2)c1 [Example 5.2, N-benzyl-2-(4-trifluoromethylbenzoylamino)isonicotinamide] | 181 to 183
16 | O=C(NCc1ccccc1)c1ccnc(NC(=O)C2CCCC2)c1 [Example 6.2, N-benzyl-2-(cyclopentanecarboxamido)isonicotinamide] | 55 to 57
17 | O=C(NCc1ccccc1)c1ccnc(NC(=O)c2ccc(F)cc2)c1 [Example 6.14, N-benzyl-2-(4-fluorobenzamido)isonicotinamide] | 170 to 171
18 | O=C(NCc1ccccc1)c1ccnc(-n2ccc(-c3ccccc3)cc2=O)c1 [Example 17, N-benzyl-2-(2-oxo-4-phenylpyridin-1(2H)-yl)isonicotinamide] | 162 to 163

Continued, values first:

Row | melting point [°C] | Structure (SMILES)
19 | 173 to 175 | O=C(NCc1ccc(F)cc1)c1ccnc(N2CCN(C(F)(F)c3ccc(C(F)F)cc3)C2=O)c1 [Example 15.21, 2-(3-((4-(difluoromethyl)phenyl)difluoromethyl)-2-oxoimidazolidin-1-yl)-N-(4-fluorobenzyl)isonicotinamide]
20 | 265 to 267 | O=C(Nc1cc(-c2nc(-c3ccccc3)c[nH]2)ccn1)c1ccccc1 [Example 10.5, N-(4-(4-phenyl-1H-imidazol-2-yl)pyridin-2-yl)benzamide]
21 | 161 to 163 | O=C(NCc1cnc(Cl)s1)c1ccnc(N2CCN(Cc3ccc(F)c(F)c3)C2=O)c1 [Example 26.33, N-((2-Chlorothiazol-5-yl)methyl)-2-(3-(3,4-difluorobenzyl)-2-oxoimidazolidin-1-yl)isonicotinamide]
22 | 141 to 143 | O=C(NCc1ccccn1)c1ccnc(N2CCN(Cc3ccc(F)cc3)C2=O)c1 (as salt: hydrochloride) [Example 15.3, 2-(3-(4-fluorobenzyl)-2-oxoimidazolidin-1-yl)-N-(pyridin-2-ylmethyl)isonicotinamide dihydrochloride]
23 | 189 to 191 | O=C(NCc1cncs1)c1ccnc(N2CCN(Cc3ccc(OC(F)(F)F)cc3)C2=O)c1 [Example 26.14, 2-(2-Oxo-3-(4-(trifluoromethoxy)benzyl)imidazolidin-1-yl)-N-(thiazol-5-ylmethyl)-isonicotinamide]
24 | 182 to 184 | Cc1nc(-c2ccccc2)sc1CNC(=O)c1ccnc(N2CCN(Cc3ccc(F)cc3)C2=O)c1 [Example 14.16, 2-(3-(4-fluorobenzyl)-2-oxoimidazolidin-1-yl)-N-((4-methyl-2-phenylthiazol-5-yl)methyl)isonicotinamide]
25 | 199 to 201 | O=C(NCc1cc(-c2ccccc2)on1)c1ccnc(N2CCN(Cc3ccc(F)cc3)C2=O)c1 [Example 26.10, 2-(3-(4-Fluorobenzyl)-2-oxoimidazolidin-1-yl)-N-((5-phenylisoxazol-3-yl)methyl)-isonicotinamide]
26 | 184 to 186 | O=C(NCc1cnc(Cl)s1)c1ccnc(N2CCN(Cc3ccc(OC(F)(F)F)cc3)C2=O)c1 [Example 26.34, N-((2-Chlorothiazol-5-yl)methyl)-2-(2-oxo-3-(4-(trifluoromethoxy)-benzyl)imidazolidin-1-yl)isonicotinamide]
27 | 150 to 151 | O=C(NCc1ccc(F)cc1)c1ccnc(N2CCN(CC3CC3)C2=O)c1 [Example 15.6, 2-(3-(cyclopropylmethyl)-2-oxoimidazolidin-1-yl)-N-(4-fluorobenzyl)isonicotinamide]
28 | 154 to 156 | O=C(NCc1ccccc1)c1ccnc(N2CCN(Cc3ccncc3)C2=O)c1 [Example 15.19, N-benzyl-2-(2-oxo-3-(pyridin-4-ylmethyl)imidazolidin-1-yl)isonicotinamide]
29 | 185 to 187 | O=C(NCc1cccnc1)c1ccnc(N2CCN(Cc3ccc(OC(F)(F)F)cc3)C2=O)c1 [Example 26.16, 2-(2-Oxo-3-(4-(trifluoromethoxy)-benzyl)imidazolidin-1-yl)-N-(pyridin-3-ylmethyl)-isonicotinamide]
30 | 211 to 213 | O=C(NCc1nnco1)c1ccnc(N2CCN(Cc3ccc(F)cc3)C2=O)c1 [Example 26.4, N-((1,3,4-Oxadiazol-2-yl)methyl)-2-(3-(4-fluorobenzyl)-2-oxoimidazolidin-1-yl)isonicotinamide]
31 | 66 to 68 | O=C(NCc1csc(C(F)(F)F)n1)c1ccnc(N2CCN(Cc3ccc(F)cc3)C2=O)c1 [Example 14.15, 2-(3-(4-fluorobenzyl)-2-oxoimidazolidin-1-yl)-N-((2-(trifluoromethyl)thiazol-4-yl)methyl)isonicotinamide]
32 | 122 to 123 | O=C(NCc1cccnc1)c1ccnc(N2CCN(CC3CC3)C2=O)c1 [Example 15.9, 2-(3-(cyclopropylmethyl)-2-oxoimidazolidin-1-yl)-N-(pyridin-3-ylmethyl)isonicotinamide]
33 | 181 to 183 | O=C(NCc1cncs1)c1ccnc(-n2cnn(Cc3ccc(F)cc3)c2=O)c1 [Example 26.26, 2-(1-(4-Fluorobenzyl)-5-oxo-1H-1,2,4-triazol-4(5H)-yl)-N-(thiazol-5-ylmethyl)-isonicotinamide]
34 | 165 to 167 | O=C(NCc1ccccc1)c1ccnc(N2CCN(Cc3ccc4nonc4c3)C2=O)c1 [Example 26.5, 2-(3-(Benzo[c][1,2,5]-oxadiazol-5-ylmethyl)-2-oxoimidazolidin-1-yl)-N-benzylisonicotinamide]
35 | 76 to 78 | Cc1nc(CNC(=O)c2ccnc(N3CCN(Cc4ccc(F)cc4)C3=O)c2)cs1 [Example 14.13, 2-(3-(4-fluorobenzyl)-2-oxoimidazolidin-1-yl)-N-((2-methylthiazol-4-yl)methyl)isonicotinamide]
36 | 148 to 150 | O=C(NCc1cncs1)c1ccnc(N2CCN(Cc3ccc(F)cc3)C2=O)c1 [Example 14.1, 2-(3-(4-fluorobenzyl)-2-oxoimidazolidin-1-yl)-N-(thiazol-5-ylmethyl)isonicotinamide]
37 | 178 to 180 | O=C(NCc1cc(Br)no1)c1ccnc(N2CCN(Cc3ccc(F)cc3)C2=O)c1 [Example 26.9, N-((3-Bromoisoxazol-5-yl)methyl)-2-(3-(4-fluorobenzyl)-2-oxoimidazolidin-1-yl)isonicotinamide]
38 | 79 to 81 | Cn1ccc(CNC(=O)c2ccnc(N3CCN(Cc4ccc(F)cc4)C3=O)c2)n1 [Example 14.6, 2-(3-(4-fluorobenzyl)-2-oxoimidazolidin-1-yl)-N-((1-methyl-1H-pyrazol-3-yl)methyl)isonicotinamide]
39 | 97 to 99 | O=C(NC[C@H](O)c1ccccc1)c1ccnc(N2CCN(Cc3ccc(F)cc3)C2=O)c1 [Example 14.12, (R)-2-(3-(4-fluorobenzyl)-2-oxoimidazolidin-1-yl)-N-(2-hydroxy-2-phenylethyl)isonicotinamide]
40 | 178 to 180 | O=C(NCc1cc[nH]n1)c1ccnc(N2CCN(Cc3ccc(F)cc3)C2=O)c1 [Example 14.9, N-((1H-pyrazol-3-yl)methyl)-2-(3-(4-fluorobenzyl)-2-oxoimidazolidin-1-yl)isonicotinamide]
41 | 153 to 155 | O=C(NCc1cccnc1)c1ccnc(N2CCN(Cc3ccc(F)cc3)C2=O)c1 [Example 15.1, 2-(3-(4-fluorobenzyl)-2-oxoimidazolidin-1-yl)-N-(pyridin-3-ylmethyl)isonicotinamide]
